Test results as given in patent publication US20240116946A1 (Gilead Sciences, Inc., priority 2022, published 2024).
Where two headings read alike, the source gives them in different places.

Experiments:
SARS-CoV-2-NLuc = assay: microbe, parasite or virus in culture; type: cell-based, SARS Coronavirus 2
[1] = target: recombinant SARS-CoV-2 Main protease (Mpro) (Severe acute respiratory syndrome coronavirus 2 (2019-nCoV) (SARS-CoV-2), UniProt P0DTD1); assay: Cov Mpro Biochemical IC50 Assay; conditions: read-out: MPro IC50
[2] = Severe acute respiratory syndrome coronavirus, 48 h, read-out: MPro EC50
[3] = recombinant SARS-CoV-2 Mpro 7.5 nM, fluorogenic peptide substrate 40 μM
[4] = recombinant SARS-CoV-2 Mpro, fluorogenic peptide substrate
[5] = Severe acute respiratory syndrome coronavirus, 48 h; read-out: MPro EC50

| Compound | EC50 (SARS-CoV-2-NLuc; [2]) [nM] | IC50 [1, 3] [nM] | EC50 (SARS-CoV-2-NLuc; read-out: MPro EC50) [nM] | IC50 [1, 4] [nM] | EC50 (SARS-CoV-2-NLuc; [5]) [nM] |
| --- | --- | --- | --- | --- | --- |
| COc1cc(-c2cc3c(s2)c(=O)n(-c2cncc(F)c2)c(=O)n3CCC#N)c(Cl)cc1F [Example 986] | 4.39 | 2.37 | – | – | – |
| COc1cnc(C#N)c(-c2cc3c(s2)c(=O)n(-c2cncc4nn(C)c(C)c24)c(=O)n3CCC#N)c1 [Example 1087] | > 1000 | 60.2 | – | – | – |
| COc1cc(-c2cc3[nH]c(=O)n(-c4cncc5ccc(C)nc45)c(=O)c3s2)c(Cl)cc1F (single isomer, unassigned) [Example 1035, 6-(2-chloro-4-fluoro-5-methoxyphenyl)-3-(2-methyl-1,6-naphthyridin-8-yl)thieno[3,2-d]pyrimidine-2,4(1H,3H)-dione] | – | 26.3 | 24.4 | – | – |
| COc1ccc(Cl)c(-c2ccc3c(=O)n(-c4cncc(C5CC5)c4)c(=O)[nH]c3c2)c1 [Example 191] | 91 | – | – | 73.8 | – |
| N#CCCn1c(=O)n(-c2cncc3ccccc23)c(=O)c2sc(-c3cc(F)ccc3Cl)cc21 [Example 831] | 7.19 | 8.53 | – | – | – |
| 5-fluoro-2-[6-fluoro-3-(4-isoquinolyl)-2,4-dioxo-1H-quinazolin-7-yl]-4-methoxy-benzonitrile [Example 517] | – | 9.51 | 35.9 | – | – |
| N#CCCn1c(=O)n(-c2cccnc2)c(=O)c2sc(-c3ccc(F)cc3Cl)cc21 [Example 800] | – | 32.6 | – | – | 114 |
| COc1cccc(C#N)c1-c1cc2[nH]c(=O)n(-c3cncc4cnn(C)c34)c(=O)c2s1 [Example 839, 3-methoxy-2-(3-(1-methyl-1H-pyrazolo[4,3-c]pyridin-7-yl)-2,4-dioxo-1,2,3,4-tetrahydrothieno[3,2-d]pyrimidin-6-yl)benzonitrile] | 463 | 91.3 | – | – | – |
| COc1ccc(C#N)c(-c2cc3[nH]c(=O)n(-c4cncc5ccccc45)c(=O)c3s2)c1 [Example 532, 2-(3-(isoquinolin-4-yl)-2,4-dioxo-1,2,3,4-tetrahydrothieno[3,2-d]pyrimidin-6-yl)-4-methoxybenzonitrile] | 17.4 | < 2.65 | – | – | – |
| Cn1cc(-c2cccc(Cl)c2-c2ccc3c(=O)n(-c4cncc5ccccc45)c(=O)[nH]c3c2)c(C(F)(F)F)n1 [Example 265] | 17.4 | – | – | 25.9 | – |
| COc1ccc(Cl)c(-c2cc3[nH]c(=O)n(-c4cncc5scc(C)c45)c(=O)c3s2)c1 [Example 609, 6-(2-chloro-5-methoxyphenyl)-3-(3-methylthieno[2,3-c]pyridin-4-yl)thieno[3,2-d]pyrimidine-2,4(1H,3H)-dione] | < 3.39 | < 2.54 | – | – | – |
| COc1cc(-c2cc3c(s2)c(=O)n(-c2cncc4cc(F)ccc24)c(=O)n3CCC#N)c(Cl)cc1F [Example 951] | 5.38 | 9.45 | – | – | – |
| N#CCCn1c(=O)n(-c2cccnc2)c(=O)c2sc(-c3ccccc3C#N)cc21 [Example 801] | – | 60.6 | – | – | 231 |
| Cn1cc(-c2cccc(Cl)c2-c2cc3[nH]c(=O)n(-c4cncc5ccccc45)c(=O)c3s2)c(C(F)(F)F)n1 (single isomer, unassigned) [Example 448, 6-(2-chloro-6-(1-methyl-3-(trifluoromethyl)-1H-pyrazol-4-yl)phenyl)-3-(isoquinolin-4-yl)thieno[3,2-d]pyrimidine-2,4(1H,3H)-dione] | – | 383 | 382 | – | – |
| O=c1[nH]c2cc(-c3ccccc3Cl)sc2c(=O)n1-c1cncc2ccccc12 [Example 1, 6-(2-chlorophenyl)-3-(isoquinolin-4-yl)thieno[3,2-d]pyrimidine-2,4(1H,3H)-dione] | – | – | – | 10.8 | 28.9 |
| COc1cc(-c2cc3c(s2)c(=O)n(-c2cncc(OC)c2C)c(=O)n3CCC#N)c(Cl)cc1F [Example 871] | 220 | 75.3 | – | – | – |

| Compound | EC50 (SARS-CoV-2-NLuc; [2]) [nM] | IC50 [1, 3] [nM] | EC50 (SARS-CoV-2-NLuc; read-out: MPro EC50) [nM] | IC50 [1, 4] [nM] | EC50 (SARS-CoV-2-NLuc; [5]) [nM] |
| --- | --- | --- | --- | --- | --- |
| Cc1noc(C)c1-c1cc2[nH]c(=O)n(-c3cncc4ccccc34)c(=O)c2s1 [Example 362] | 201 | – | – | 35.6 | – |
| O=c1[nH]c2cc(-c3c(F)cccc3Cl)ccc2c(=O)n1-c1cncc2ccccc12 [Example 162, 7-(2-Chloro-6-fluoro-phenyl)-3-(4-isoquinolyl)-1H-quinazoline-2,4-dione] | 392 | – | – | 344 | – |
| COc1cc(-c2cc3c(s2)c(=O)n(-c2cncc4cnn(C)c24)c(=O)n3CC(F)F)c(Cl)cc1F [Example 1065, 6-(2-chloro-4-fluoro-5-methoxy-phenyl)-1-(2,2-difluoroethyl)-3-(1-methylpyrazolo[4,3-c]pyridin-7-yl)thieno[3,2-d]pyrimidine-2,4-dione] | – | 7.01 | – | – | 13.6 |
| COc1ccc(Cl)c(-c2cc3[nH]c(=O)n(-c4cncc5ccc(CO)cc45)c(=O)c3s2)c1 [Example 552, 6-(2-chloro-5-methoxyphenyl)-3-(6-(hydroxymethyl)isoquinolin-4-yl)thieno[3,2-d]pyrimidine-2,4(1H,3H)-dione] | 12.4 | 7.13 | – | – | – |
| Cn1ncc2cncc(-n3c(=O)c4sc(-c5ccccc5C#N)cc4n(CCC#N)c3=O)c21 [Example 782, 2-(1-(2-cyanoethyl)-3-(1-methyl-1H-pyrazolo[4,3-c]pyridin-7-yl)-2,4-dioxo-1,2,3,4-tetrahydrothieno[3,2-d]pyrimidin-6-yl)benzonitrile] | 39.8 | 15.5 | – | – | – |
| COc1ccc(C#N)c(-c2cc3[nH]c(=O)n(-c4cncc5cccc(F)c45)c(=O)c3s2)c1 [Example 446] | 25.5 | 8.74 | – | – | – |
| COc1cc(-c2cc3c(s2)c(=O)n(-c2cncc4ccccc24)c(=O)n3CC2(C#N)CC2)c(Cl)cc1F (single isomer, unassigned) [Example 636, 1-[[6-(2-chloro-4-fluoro-5-methoxy-phenyl)-3-(4-isoquinolyl)-2,4-dioxo-thieno[3,2-d]pyrimidin-1-yl]methyl]cyclopropanecarbonitrile] | – | 11.6 | 5.54 | – | – |
| COc1ccc(Cl)c(-c2ccc3c(=O)n(-c4cncc5ccc(N6CC7(CNC(=O)C7)C6)cc45)c(=O)[nH]c3c2)c1 [Example 411] | – | 8.93 | – | – | 221 |
| COc1cccc(F)c1-c1ccc2c(=O)n(-c3cncc4ccccc34)c(=O)[nH]c2c1 [Example 61] | 648 | – | – | 914 | – |
| COc1ccc(C#N)c(-c2ccc3c(=O)n(-c4cncc5ccc(N6CCOCC6)cc45)c(=O)[nH]c3c2)c1 [Example 431] | 71.3 | 10.5 | – | – | – |
| COc1cc(-c2cc3c(s2)c(=O)n(-c2cncc(CO)c2)c(=O)n3CCC#N)c(C#N)cc1F [Example 1102] | 568 | 4.12 | – | – | – |
| O=c1[nH]c2cc(-c3ccccc3Cl)sc2c(=O)n1-c1cncc2c1OCCC2 [Example 588] | 47.4 | 14.8 | – | – | – |
| Cc1nn(CC(F)(F)F)cc1-c1cccc(Cl)c1-c1ccc2c(=O)n(-c3cncc4ccccc34)c(=O)[nH]c2c1 [Example 285] | 25.5 | – | – | 19.2 | – |
| Cc1cncc(-n2c(=O)c3sc(-c4cc(Cl)ccc4C#N)cc3n(CCC#N)c2=O)c1 [Example 879] | – | 4.33 | – | – | 20.4 |
| COc1ccc(C#N)c(-c2cc3[nH]c(=O)n(-c4cncc5ccsc45)c(=O)c3s2)c1 [Example 483] | 18.1 | < 2.54 | – | – | – |
